In ChEMBL document CHEMBL1155344, “Synthesis of some new 1,2,4-triazoles starting from isonicotinic acid hydrazide and evaluation of their antimicrobial activities” (2009):
Calls of active or inactive are those of the source. The rule behind the calls is not given here.

Legend:
Candida albicans [1] = assay: Antimicrobial activity against Candida albicans ATCC 60193 after 18 hrs by well diffusion method; format: functional
Candida tropicalis [2] = assay: Antimicrobial activity against Candida tropicalis ATCC 13803 after 18 hrs by well diffusion method; format: functional
Escherichia coli [3] = assay: Antimicrobial activity against Escherichia coli ATCC 25922 after 18 hrs by well diffusion method; format: functional
Bacillus cereus [4] = assay: Antimicrobial activity against Bacillus cereus 702 Roma after 18 hrs by well diffusion method; format: functional
Staphylococcus aureus [5] = assay: Antimicrobial activity against Staphylococcus aureus ATCC 25923 after 18 hrs by well diffusion method; format: functional
Enterococcus faecalis [6] = assay: Antimicrobial activity against Enterococcus faecalis ATCC 29212 after 18 hrs by well diffusion method; format: functional
Pseudomonas aeruginosa [7] = assay: Antimicrobial activity against Pseudomonas aeruginosa ATCC 27853 after 18 hrs by well diffusion method; format: functional
[8] = system: Yersinia pseudotuberculosis; assay: Antimicrobial activity against Yersinia pseudotuberculosis ATCC 911after 18 hrs by well diffusion method; format: functional
Bacillus cereus [9] = assay: Antimicrobial activity against Bacillus cereus 702 Roma at 10 ug after 18 hrs by well diffusion method; format: functional; conditions: read-out: IZ
Pseudomonas aeruginosa [10] = assay: Antimicrobial activity against Pseudomonas aeruginosa ATCC 27853 at 10 ug after 18 hrs by well diffusion method; format: functional; conditions: ATCC 27853, 18 h, read-out: IZ
Enterococcus faecalis [11] = assay: Antimicrobial activity against Enterococcus faecalis ATCC 29212 at 10 ug after 18 hrs by well diffusion method; format: functional; conditions: ATCC 29212, 18 h, read-out: IZ
Staphylococcus aureus [12] = assay: Antimicrobial activity against Staphylococcus aureus ATCC 25923 at 10 ug after 18 hrs by well diffusion method; format: functional; conditions: ATCC 25923, 18 h, read-out: IZ
[13] = system: Yersinia pseudotuberculosis; assay: Antimicrobial activity against Yersinia pseudotuberculosis ATCC 911 at 10 ug after 18 hrs by well diffusion method; format: functional; conditions: ATCC 911, 18 h, read-out: IZ
Candida albicans [14] = assay: Antimicrobial activity against Candida albicans ATCC 60193 at 10 ug after 18 hrs by well diffusion method; format: functional, organism-based
Candida tropicalis [15] = assay: Antimicrobial activity against Candida tropicalis ATCC 13803 at 10 ug after 18 hrs by well diffusion method; format: functional, organism-based
Escherichia coli [16] = assay: Antimicrobial activity against Escherichia coli ATCC 25922 at 10 ug after 18 hrs by well diffusion method; format: functional; conditions: ATCC 25922, 18 h, read-out: IZ
Bacillus cereus [17] = assay: Antimicrobial activity against Bacillus cereus 702 Roma at 5 ug after 18 hrs by well diffusion method; format: functional, organism-based
Pseudomonas aeruginosa [18] = assay: Antimicrobial activity against Pseudomonas aeruginosa ATCC 27853 at 5 ug after 18 hrs by well diffusion method; format: functional, organism-based
Enterococcus faecalis [19] = assay: Antimicrobial activity against Enterococcus faecalis ATCC 29212 at 5 ug after 18 hrs by well diffusion method; format: functional, organism-based
Staphylococcus aureus [20] = assay: Antimicrobial activity against Staphylococcus aureus ATCC 25923 at 5 ug after 18 hrs by well diffusion method; format: functional, organism-based
Candida tropicalis [21] = assay: Antimicrobial activity against Candida tropicalis ATCC 13803 at 5 ug after 18 hrs by well diffusion method; format: functional; conditions: ATCC 13803, 18 h, read-out: IZ
[22] = system: Yersinia pseudotuberculosis; assay: Antimicrobial activity against Yersinia pseudotuberculosis ATCC 911 at 5 ug after 18 hrs by well diffusion method; format: functional, organism-based
Candida albicans [23] = assay: Antimicrobial activity against Candida albicans ATCC 60193 at 5 ug after 18 hrs by well diffusion method; format: functional; conditions: ATCC 60193, 18 h, read-out: IZ
Escherichia coli [24] = assay: Antimicrobial activity against Escherichia coli ATCC 25922 at 5 ug after 18 hrs by well diffusion method; format: functional, organism-based

SMILES	inhibition zone (IZ) (Candida albicans [1])	inhibition zone (IZ) (Candida tropicalis [2])	inhibition zone (IZ) (Escherichia coli [3])	inhibition zone (IZ) (Bacillus cereus [4])	inhibition zone (IZ) (Staphylococcus aureus [5])	inhibition zone (IZ) (Enterococcus faecalis [6])	inhibition zone (IZ) (Pseudomonas aeruginosa [7])	inhibition zone (IZ) [8]	further results
Nn1c(-c2ccncc2)nn(CN2CCOCC2)c1=S	inactive	inactive	20 mm	inactive	inactive	inactive	inactive	13 mm	
S=c1[nH]nc(-c2ccncc2)o1	25 mm	30 mm	inactive	inactive	10 mm	inactive	inactive	inactive	
CC1(C)S[C@@H]2[C@H](NC(=O)[C@H](N)c3ccccc3)C(=O)N2[C@H]1C(=O)O [AMPICILLIN]									zone of inhibition at 10 µg/disc (Bacillus cereus [9]): 15 mm; zone of inhibition at 10 µg/disc (Pseudomonas aeruginosa [10]): 18 mm; zone of inhibition at 10 µg/disc (Enterococcus faecalis [11]): 10 mm; zone of inhibition at 10 µg/disc (Staphylococcus aureus [12]): 35 mm; zone of inhibition at 10 µg/disc [13]: 18 mm; inhibition zone (IZ) (Candida albicans [14]): inactive; inhibition zone (IZ) (Candida tropicalis [15]): inactive; zone of inhibition at 10 µg/disc (Escherichia coli [16]): 10 mm
CCSc1nnc(-c2ccncc2)n1N	8 mm	8 mm	30 mm	20 mm	25 mm	25 mm	25 mm		
OC(Cn1cncn1)(Cn1cncn1)c1ccc(F)cc1F [FLUCONAZOLE]									inhibition zone (IZ) (Bacillus cereus [17]): inactive; inhibition zone (IZ) (Pseudomonas aeruginosa [18]): inactive; inhibition zone (IZ) (Enterococcus faecalis [19]): inactive; inhibition zone (IZ) (Staphylococcus aureus [20]): inactive; zone of inhibition at 5 µg/disc (Candida tropicalis [21]): 25 mm; inhibition zone (IZ) [22]: inactive; zone of inhibition at 5 µg/disc (Candida albicans [23]): 25 mm; inhibition zone (IZ) (Escherichia coli [24]): inactive
CN1CCN(Cn2nc(-c3ccncc3)oc2=S)CC1	inactive	inactive	23 mm	17 mm	17 mm	17 mm	28 mm	15 mm	
Nn1c(-c2ccncc2)nn(CNCCN2CCOCC2)c1=S	inactive	inactive	inactive	inactive	inactive	inactive	inactive	inactive	
CN1CCN(Cn2nc(-c3ccncc3)n(/N=C/c3ccc(F)cc3)c2=S)CC1	inactive	inactive	inactive	inactive	inactive	inactive	inactive	inactive	
Nn1c(S)nnc1-c1ccncc1	inactive	inactive	34 mm	20 mm	34 mm	24 mm	42 mm	30 mm	
S=c1oc(-c2ccncc2)nn1CNCCN1CCOCC1	inactive	inactive	13 mm	14 mm	14 mm	15 mm	13 mm	13 mm	
CN1CCN(Cn2nc(-c3ccncc3)n(N)c2=S)CC1	inactive	inactive	30 mm	22 mm	28 mm	25 mm	35 mm	24 mm	
CCSc1nnc(-c2ccncc2)o1	7 mm	7 mm	30 mm	18 mm	25 mm	25 mm	25 mm	22 mm	
S=c1[nH]nc(-c2ccncc2)n1/N=C/c1c[nH]c2ccccc12	inactive	inactive	inactive	inactive	inactive	inactive	inactive	inactive	
Fc1ccc(/C=N/n2c(-c3ccncc3)n[nH]c2=S)cc1	8 mm	8 mm	inactive	7 mm	inactive	inactive	inactive	inactive	
